Tests used:
Type in all cases: in vivo
[1] = tested on: sedge umbrella (small-flower umbrella sedge, Cyperus difformis); assay: Test D flooded paddy test, visual plant response rating; settings: 250 g ai/ha, scale 0 to 100 (0 no effect, 100 complete control), 13 to 15 d
How it was run: (§1)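 Rating is visual, on a 0 (no effect) to 100 (complete control) scale versus controls, taken 13 to 15 d after treatment in a greenhouse. Treatment went into paddy water kept 3 cm above the soil surface, with plants at the 2-leaf stage.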

[2] = tested on: barnyardgrass (Echinochloa crus-galli); assay: as above; settings: 250 g ai/ha, scale 0 to 100 (0 no effect, 100 complete control), 13 to 15 d
How it was run: as §1

[3] = tested on: duck salad (Heteranthera limosa); assay: as above; settings: 250 g ai/ha, scale 0 to 100 (0 no effect, 100 complete control), 13 to 15 d
How it was run: as §1

[4] = tested on: rice (Oryza sativa); assay: as above; settings: 250 g ai/ha, scale 0 to 100 (0 no effect, 100 complete control), 13 to 15 d
How it was run: as §1

[5] = tested on: kochia (Bassia scoparia); assay: Test C preemergence, visual plant response rating; settings: Test C, 0 is no effect, 100 is complete control
How it was run: (§2)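 Visual injury on a 0 (no effect) to 100 (complete control) scale versus untreated controls, scored approximately 10 d after treatment under greenhouse conditions. Treatments used surfactant-containing non-phytotoxic solvent formulations, sprayed onto loam–sand soil preemergence or onto one- to two-leaf plants 2–10 cm tall postemergence.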

[6] = tested on: barnyardgrass (Echinochloa crus-galli); assay: Test C preemergence, visual plant response rating; settings: Test C, 0 is no effect, 100 is complete control
How it was run: as §2

[7] = tested on: foxtail, giant (giant foxtail, Setaria faberi); assay: Test C preemergence, visual plant response rating; settings: Test C, 0 is no effect, 100 is complete control
How it was run: as §2

[8] = tested on: ragweed (common ragweed, Ambrosia artemisiifolia); assay: Test C preemergence, visual plant response rating; settings: Test C, 0 is no effect, 100 is complete control
How it was run: as §2

[9] = tested on: Italian ryegrass (Lolium mutiflorum); assay: Test C preemergence, visual plant response rating; settings: Test C, 0 is no effect, 100 is complete control
How it was run: as §2

[10] = tested on: pigweed (Amaranthus retroflexus); assay: Test C preemergence, visual plant response rating; settings: Test C, 0 is no effect, 100 is complete control
How it was run: as §2

[11] = tested on: kochia (Bassia scoparia); assay: Test C postemergence, visual plant response rating
How it was run: as §2

[12] = tested on: barnyardgrass (Echinochloa crus-galli); assay: Test C postemergence, visual plant response rating
How it was run: as §2

[13] = tested on: corn (Zea mays); assay: Test C postemergence, visual plant response rating
How it was run: as §2

[14] = tested on: wheat (Triticum aestivum); assay: Test C postemergence, visual plant response rating
How it was run: as §2

[15] = tested on: galium (catchweed bedstraw, Galium aparine); assay: Test C postemergence, visual plant response rating
How it was run: as §2

[16] = tested on: foxtail, giant (giant foxtail, Setaria faberi); assay: Test C postemergence, visual plant response rating
How it was run: as §2

[17] = tested on: ragweed (common ragweed, Ambrosia artemisiifolia); assay: Test C postemergence, visual plant response rating
How it was run: as §2

[18] = tested on: Italian ryegrass (Lolium mutiflorum); assay: Test C postemergence, visual plant response rating
How it was run: as §2

[19] = tested on: blackgrass (Alopecurus myosuroides); assay: Test C postemergence, visual plant response rating
How it was run: as §2

[20] = tested on: pigweed (Amaranthus retroflexus); assay: Test C postemergence, visual plant response rating
How it was run: as §2

[21] = Test C, postemergence, 125 g ai/ha

Question: How did the “Plant response rating, Sedge, Umbrella (Flood)” value [1] turn out when `CCO/N=C(/c1c(O)cnn(C)c1=O)c1ccc(F)c2ccccc12` [Compound 270] was run?
Answer: 0

Question: What about the “Plant response rating, Barnyardgrass (Flood)” value [2] of the same compound?
Answer: 0

Question: What about the “Plant response rating, Ducksalad (Flood)” value [3] of the same compound?
Answer: 0

Question: And the “Plant response rating, Rice (Flood)” value [4]?
Answer: 0

Question: What about the “Kochia plant response rating (0 to 100 scale)” value (from here on “Kochia plant response rating”) ([5]; 31 g ai/ha) of the same compound?
Answer: 0

Question: What about the “Kochia plant response rating” value ([5]; 125 g ai/ha) of the same compound?
Answer: 0

Question: And the “Barnyardgrass plant response rating (0 to 100 scale)” value (“Barnyardgrass plant response rating” for short) ([6]; 31 g ai/ha)?
Answer: 0

Question: And the “Barnyardgrass plant response rating” value ([6]; 125 g ai/ha)?
Answer: 0

Question: What about the “Foxtail, Giant plant response rating (0 to 100 scale)” value (“Foxtail, Giant plant response rating” below) ([7]; 31 g ai/ha) of the same compound?
Answer: 0

Question: And the “Foxtail, Giant plant response rating” value ([7]; 125 g ai/ha)?
Answer: 20

Question: And the “Ragweed plant response rating (0 to 100 scale)” value (“Ragweed plant response rating” below) ([8]; 31 g ai/ha)?
Answer: 0

Question: What about the “Ragweed plant response rating” value ([8]; 125 g ai/ha) of the same compound?
Answer: 10

Question: And the “Ryegrass, Italian plant response rating (0 to 100 scale)” value (“Ryegrass, Italian plant response rating” for short) ([9]; 31 g ai/ha)?
Answer: 0

Question: And the “Ryegrass, Italian plant response rating” value ([9]; 125 g ai/ha)?
Answer: 10

Question: What about the “Pigweed plant response rating (0 to 100 scale)” value (“Pigweed plant response rating” below) ([10]; 31 g ai/ha) of the same compound?
Answer: 0

Question: What about the “Pigweed plant response rating” value ([10]; 125 g ai/ha) of the same compound?
Answer: 0

Question: And the “Kochia plant response rating” value ([11]; Postemergence, 31 g ai/ha)?
Answer: 20

Question: What about the “Kochia plant response rating” value [11, 21] of the same compound?
Answer: 30

Question: And the “Barnyardgrass plant response rating” value ([12]; Postemergence, 31 g ai/ha)?
Answer: 0

Question: What about the “Barnyardgrass plant response rating” value [12, 21] of the same compound?
Answer: 0

Question: And the “Corn plant response rating (0 to 100 scale)” value (“Corn plant response rating” for short) ([13]; Postemergence, 31 g ai/ha)?
Answer: 0

Question: And the “Corn plant response rating” value [13, 21]?
Answer: 0

Question: And the “Wheat plant response rating (0 to 100 scale)” value (shortened to “Wheat plant response rating”) ([14]; Postemergence, 31 g ai/ha)?
Answer: 0

Question: What about the “Wheat plant response rating” value [14, 21] of the same compound?
Answer: 0

Question: What about the “Galium plant response rating (0 to 100 scale)” value (“Galium plant response rating” for short) ([15]; Postemergence, 31 g ai/ha) of the same compound?
Answer: 50

Question: What about the “Galium plant response rating” value [15, 21] of the same compound?
Answer: 80

Question: And the “Foxtail, Giant plant response rating” value ([16]; Postemergence, 31 g ai/ha)?
Answer: 0

Question: What about the “Foxtail, Giant plant response rating” value [16, 21] of the same compound?
Answer: 10

Question: And the “Ragweed plant response rating” value ([17]; Postemergence, 31 g ai/ha)?
Answer: 20

Question: What about the “Ragweed plant response rating” value [17, 21] of the same compound?
Answer: 70

Question: And the “Ryegrass, Italian plant response rating” value ([18]; Postemergence, 31 g ai/ha)?
Answer: 0

Question: And the “Ryegrass, Italian plant response rating” value [18, 21]?
Answer: 10

Question: And the “Blackgrass plant response rating (0 to 100 scale)” value (“Blackgrass plant response rating” for short) ([19]; Postemergence, 31 g ai/ha)?
Answer: 0

Question: And the “Blackgrass plant response rating” value [19, 21]?
Answer: 30

Question: And the “Pigweed plant response rating” value ([20]; Postemergence, 31 g ai/ha)?
Answer: 80

Question: And the “Pigweed plant response rating” value [20, 21]?
Answer: 50

Question: How did the “Plant response rating, Sedge, Umbrella (Flood)” value [1] turn out when `CON=C(c1cc(Cl)cc(F)c1Cl)c1c(O)c(C)nn(C)c1=O` [Compound 271] was run?
Answer: 0

Question: And the “Plant response rating, Barnyardgrass (Flood)” value [2]?
Answer: 0

Question: What about the “Plant response rating, Ducksalad (Flood)” value [3] of the same compound?
Answer: 0

Question: And the “Plant response rating, Rice (Flood)” value [4]?
Answer: 0

Question: What about the “Kochia plant response rating” value ([5]; 31 g ai/ha) of the same compound?
Answer: 20

Question: What about the “Kochia plant response rating” value ([5]; 125 g ai/ha) of the same compound?
Answer: 100

Question: And the “Barnyardgrass plant response rating” value ([6]; 31 g ai/ha)?
Answer: 30

Question: What about the “Barnyardgrass plant response rating” value ([6]; 125 g ai/ha) of the same compound?
Answer: 50

Question: What about the “Foxtail, Giant plant response rating” value ([7]; 31 g ai/ha) of the same compound?
Answer: 40

Question: And the “Foxtail, Giant plant response rating” value ([7]; 125 g ai/ha)?
Answer: 80

Question: And the “Ragweed plant response rating” value ([8]; 31 g ai/ha)?
Answer: 30

Question: What about the “Ragweed plant response rating” value ([8]; 125 g ai/ha) of the same compound?
Answer: 80

Question: And the “Ryegrass, Italian plant response rating” value ([9]; 31 g ai/ha)?
Answer: 80

Question: What about the “Ryegrass, Italian plant response rating” value ([9]; 125 g ai/ha) of the same compound?
Answer: 100

Question: What about the “Pigweed plant response rating” value ([10]; 31 g ai/ha) of the same compound?
Answer: 100

Question: And the “Pigweed plant response rating” value ([10]; 125 g ai/ha)?
Answer: 100

Question: What about the “Kochia plant response rating” value ([11]; Postemergence, 31 g ai/ha) of the same compound?
Answer: 60

Question: What about the “Kochia plant response rating” value [11, 21] of the same compound?
Answer: 80

Question: What about the “Barnyardgrass plant response rating” value ([12]; Postemergence, 31 g ai/ha) of the same compound?
Answer: 40

Question: What about the “Barnyardgrass plant response rating” value [12, 21] of the same compound?
Answer: 80

Question: What about the “Corn plant response rating” value ([13]; Postemergence, 31 g ai/ha) of the same compound?
Answer: 10

Question: And the “Corn plant response rating” value [13, 21]?
Answer: 30

Question: What about the “Wheat plant response rating” value ([14]; Postemergence, 31 g ai/ha) of the same compound?
Answer: 30

Question: What about the “Wheat plant response rating” value [14, 21] of the same compound?
Answer: 70

Question: What about the “Galium plant response rating” value ([15]; Postemergence, 31 g ai/ha) of the same compound?
Answer: 100

Question: What about the “Galium plant response rating” value [15, 21] of the same compound?
Answer: 100

Question: What about the “Foxtail, Giant plant response rating” value ([16]; Postemergence, 31 g ai/ha) of the same compound?
Answer: 70

Question: And the “Foxtail, Giant plant response rating” value [16, 21]?
Answer: 80

Question: What about the “Ragweed plant response rating” value ([17]; Postemergence, 31 g ai/ha) of the same compound?
Answer: 70

Question: And the “Ragweed plant response rating” value [17, 21]?
Answer: 90

Question: And the “Ryegrass, Italian plant response rating” value ([18]; Postemergence, 31 g ai/ha)?
Answer: 80

Question: What about the “Ryegrass, Italian plant response rating” value [18, 21] of the same compound?
Answer: 100

Question: What about the “Blackgrass plant response rating” value ([19]; Postemergence, 31 g ai/ha) of the same compound?
Answer: 20

Question: And the “Blackgrass plant response rating” value [19, 21]?
Answer: 40

Question: And the “Pigweed plant response rating” value ([20]; Postemergence, 31 g ai/ha)?
Answer: 80

Question: What about the “Pigweed plant response rating” value [20, 21] of the same compound?
Answer: 90
